Data on two compounds can be found in patent US20030086869A1, “Methods and kits for diagnosing a pancreatic-based fat malabsorption disorder” (priority 2001, published 2003).

Series [1] in a line: Malabsorption Blood Test (MBT): serum levels of PA and HA after oral PA and THA test breakfast meal in healthy control subjects. The format is in vivo, human. As to the method: (§1) Both whole post-absorptive serum and isolated chylomicron fractions of the serum are analyzed for fatty acid composition. Chylomicrons are isolated from plasma by centrifugation at d=1.006 g/ml for 30 minutes at 26,000 g (Hatch, F. T., et al., 1968; Adv. Lipid Res., 6:1-68). Total lipids are extracted from each specimen following the method of Bligh and Dyer (Bligh, E. G., et al., 1959; Can. J. Biochem., 37:911-917). Following transmethylation of the lipid extracts using BF3-methanol, fatty acid composition is determined using gas-liquid chromatographic (GLC) analysis using a Hewlett Packard GLC equipped with a flame ionization detector, an automatic 7673 sampler and […]×0.25 mm ID column composed of a 0.20 micron film of SP-2560 (Supelco, Bellefonte, Pa.) (Morrison, W., et al., 1964; J. Lipid Res. 5:600-608). The temperature is programmed to change from 140° C. to 240° C. at a rate of 4° C./minute. At the time of extraction, heptadecanoic methyl ester is added as an internal standard.
Healthy control subjects between 18 and 50 years of age were selected. Exclusion criteria included: any chronic illness known to affect nutrient absorption, body mass index (BMI) <21 or >30 kg/m^2 (generally accepted healthy adult ranges), therapy with lipid lowering drugs, diabetes mellitus (NIDDM and IDDM), disorders associated with altered energy metabolism (e.g., hypothyroidism) and disinterest in participating in all three dosing experiments. This adult age range was selected for several reasons: (a) adult subjects are likely to remain committed to all three components of the study; (b) adults will understand the need to provide reliable feedback on taste and tolerance of the test breakfast meal and the entire malabsorption test procedure; and (c) adult subjects are able to plan the experimental day for full cooperation with the multiple phlebotomy events from 0700 to 1500 hours.
Upon arrival at the study center, subjects had their weight and height measured and an experienced phlebotomist inserted a self-retaining intravenous catheter with a heparin lock for serial blood sampling. After initially drawing 2 milliliters of blood into a sterile syringe, the experimental blood sample (2 milliliters) was drawn and immediately stored in a 4-milliliter serum separator tube. Thereafter, the initial 2 milliliters of blood was infused back into the catheter followed by 2 milliliters of heparin flush. After the baseline blood samples were obtained, the subjects drank an approximately 8 to 12 ounce liquid test breakfast meal. This meal contained one to three doses of PA and THA in a random distribution. Subjects were asked to consume the test breakfast meal within five minutes. Thereafter, serial blood samples were obtained at regular intervals over a period ranging from 30 minutes to 24 hours. During the initial eight-hour period, subjects were permitted to ingest non-caloric and non-caffeinated beverages. A study protocol lunch of known fat content was provided and actual food intake was recorded. Ambulation was limited to maintain adherence to the 30 to 60 minute intervals in the blood sampling schedule. After completion of the blood sampling, the catheter was removed, a snack was offered, and the subjects were encouraged to consume a full meal. The lipid doses (mg/kg) of PA and THA used in this experiment were based on doses 10-fold higher than similar fats used to correct essential fatty acid deficiency in cystic fibrosis, and previous studies which used ^13C […] to qualitatively assess fat malabsorption in pancreatic disease (Rosenlund, M. L., et al., 1977;Pediatrics, 59:428-32; Wutzke, K. D., et al., 1999; J. Pediatr. Gastroenterol. Nutr., 29:148-54).
Four healthy control subjects were administered a dose of 30 mg/kg PA and 30 mg/kg THA in the digestible composition (a liquid breakfast shake) after a 12-hour fast. Blood was drawn at baseline before consumption of the shake and then every 30 minutes thereafter until hour 6. […]

A short description of series [2]: MBT absorption of PA and HA prior to Orlistat in fifteen healthy subjects. The class given is in vivo, human. To be noted: PA 2.5 grams and THA 8.0 grams, FIG. 10, 11. From the text: Fifteen healthy adult subject volunteers (9 women) 18 to 50 years of age were recruited through local advertisements. Exclusion criteria included: any chronic illness known to affect nutrient absorption, body mass index (BMI) of less than 21 or greater than 30 kg/m^2 (i.e., outside of generally accepted healthy adult ranges), therapy with lipid lowering drugs, diabetes mellitus (NIDDM, IDDM) and disorders associated with altered energy metabolism (e.g., hypothyroidism). This adult age range was selected because Orlistat is FDA approved in adults. In addition, adults are able to plan the experimental days for cooperation with four days of the research study diet, outpatient 72-hour stool collection and phlebotomy requirements. […]
Subjects underwent a 12-hour fast from 2100 hours on day #1 of the study. […] Upon arrival at the study center on the morning of day #2, subjects had their weight and height measured, and an experienced phlebotomist inserted a self-retaining intravenous catheter with a heparin lock for serial blood sampling. […] The number and timing of blood samples was determined by the experiments in Example 1, and was expected to be six or fewer samples over an eight-hour or less time period. […]

Series [3] in a line: MBT serum levels of PA and HA in subjects with CF and pancreatic insufficiency on and off pancreatic enzymes. The format is in vivo, human. The procedure:
as §1
Subjects with CF and pancreatic insufficiency currently treated with pancreatic enzymes, aged greater than 8 years were recruited. Exclusion criteria included: forced expiratory volume of the lungs at 1 second (FEV1) <40%, a history of fibrosing colonopathy or significant bowel resection (>10 cm), mental retardation, significant neurological deficit, developmental disability and autism. Subjects are in their usual state of good health. This age range was selected because it includes children during active growth where information regarding degree of malabsorption leads to improved nutritional intervention and pancreatic enzyme therapy. Also, children greater than 8 years of age are mature enough to provide assent and feedback concerning acceptability and tolerance of the MBT.
In the experiments shown in FIGS. 12 through 15, three subjects with CF were given either 30 mg/kg PA and 60 mg/kg THA (2 subjects) or 30 mg/kg PA and 90 mg/kg THA (1 subject) in a digestible composition consisting of a liquid breakfast shake after a 12 hour fast. The subjects were tested while they were taking their usual doses of pancreatic enzymes and then were tested again (more than one week later) when they were not taking pancreatic enzymes. Blood was sampled at baseline and then at hourly intervals from 2 to 8 hours and then sampled again at 24 hours. Subjects were fed a prepared lunchtime meal with a known quantity of fat (80 grams). The individual results for fat absorption for the 3 subjects with CF on enzymes are presented in FIG. 12 for PA and FIG. 13 for HA. For the same 3 subjects with CF off enzymes, the results for fat absorption are presented in FIG. 14 for PA and FIG. 15 for HA.
Additional experiments were performed on six subjects with CF either on or off pancreatic enzyme treatment. The serum levels of PA and HA in these six subjects on and off pancreatic enzyme treatment are presented in FIG. 16 anf FIG. 17, respectively.

The target in series [4] is T1, pancreatic lipase (Homo sapiens, UniProt P16233).
T1 construct: from tissue; host or cells: in vivo: endogenous pancreatic secretion in the small intestine of healthy adult subjects
T1 sequence (P16233 17-465): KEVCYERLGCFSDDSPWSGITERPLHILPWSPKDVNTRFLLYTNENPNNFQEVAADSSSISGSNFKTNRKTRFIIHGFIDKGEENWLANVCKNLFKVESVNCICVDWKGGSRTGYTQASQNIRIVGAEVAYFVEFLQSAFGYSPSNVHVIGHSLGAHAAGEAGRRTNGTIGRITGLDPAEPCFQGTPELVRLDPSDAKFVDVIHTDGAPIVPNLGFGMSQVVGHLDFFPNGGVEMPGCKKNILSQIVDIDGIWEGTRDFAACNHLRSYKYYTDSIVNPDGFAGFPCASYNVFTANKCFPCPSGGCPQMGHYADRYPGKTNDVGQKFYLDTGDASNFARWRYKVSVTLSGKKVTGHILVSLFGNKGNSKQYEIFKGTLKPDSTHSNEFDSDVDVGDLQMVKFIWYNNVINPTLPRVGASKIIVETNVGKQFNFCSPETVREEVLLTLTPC
T1 sequence (P04118 23-112 partner): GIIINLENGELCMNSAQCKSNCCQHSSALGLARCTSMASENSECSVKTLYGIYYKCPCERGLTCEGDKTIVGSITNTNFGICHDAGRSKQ
Kind of series: MBT before and after Orlistat treatment in healthy adult subjects (pharmaceutically induced fat malabsorption). The format is in vivo. As to the method: Analysis of the baseline and subsequent half-hourly or hourly serum samples taken for up to eight hours for the three doses of pentadecanoic acid (PA) and triglyceride containing heptadecanoic fatty acids (THA) are used to create time-dependent measured and normalized measured (see below) dosage response curves. Each concentration is analyzed independently for each subject and as a complete set for all subjects to determine the rates of absorption, distribution, and elimination for each of the measured fatty acids PA and heptadecanoic acid (HA) and the pancreatic enzyme activity for the hydrolysis of THA. The simplest model to determine a coefficient of fat absorption and an index of pancreatic enzyme activity is derived from the set of normal subjects and subsequently applied to subjects before and during therapy with a pancreatic enzyme inhibitor (Orlistat). Finally, this model is applied to subjects with CF receiving various levels of enzyme therapy to determine their coefficient of fat absorption and their index of enzymatic activity. In the simplest possible situation, the measured levels of both HA and PA are dose independent and reach an early and prolonged steady state in either whole plasma or in the chylomicron fraction. In that case, the normalized PA and HA can be compared against a CFA measured using the conventional standard 72 hour stool and diet collection method for the same patient and an appropriate conversion factor (which may be dependent upon the BMI) can be determined from the data. The ratio of the normalized HA to the normalized PA is defined as an index reflecting the pancreatic enzymatic activity profile during the absorption phase. The data is analyzed for any dependence of this index upon the patient's age or BMI. The comparisons before and after therapy with Orlistat are expected to reflect a decrease in this index of approximately 70%. […]

[5] abbreviates: four healthy control subjects, 30 mg/kg PA and 60 mg/kg THA, FIG. 3A, 4, 5A.
Setting [6] is: four healthy control subjects, 30 mg/kg PA and either 60 or 90 mg/kg THA oral, FIG. 1 model.
[7] abbreviates: subjects with CF on pancreatic enzymes.

SMILES strings stand for the structures.

Regarding `CCCCCCCCCCCCCCCCC(=O)O` [HA, heptadecanoic acid], the “delay before rise in serum concentration” value in series [1] (four healthy control subjects, 30 mg/kg PA and 30 mg/kg THA, liquid breakfast shake after 12-hour fast, FIG. 2) lay within 3 to 4 h. Further, in series [1] (setting [5]), the “time at which increase in serum level is evident / begins” value stood at 3 h and the “time of peak serum level” value amounted to 6 h. The “time of peak serum level” value in series [1] (four healthy control subjects, 30 mg/kg PA and 90 mg/kg THA, FIG. 6-8) amounted to 6 h. In series [1] (four healthy control subjects, 30 mg/kg PA and either 60 or 90 mg/kg THA oral at baseline, FIG. 1 model), the peak serum level result is recorded as “approximately 3 mg/dL”. In addition, in series [1] (setting [6]), the “time of peak serum level” value came out at 6 h and the “time post-dose before serum level rises” value was “two”. In addition, the concentration at 8 h in series [1] (human, serum, four healthy control subjects, 30 mg/kg PA and either 60 or 90 mg/kg THA oral, FIG. 1 model, read-out: serum level by eight hours post dose) was about 10 µg/mL. In addition, in series [1] (six healthy volunteers, PA 2.5 grams and THA 5.0 or 8.0 grams, FIG. 5B), the “time up to which serum response continued to increase (sharp decrease after)” value came out at 6 h. In addition, in series [2], the average absorption result is “approximately 45%”. Further, the serum level response entry in series [3] (subjects with CF off pancreatic enzymes) is “no increase in serum levels”. In series [3] (setting [7]), the “delay before serum levels increased” value was found to be 2 h and the “time of peak serum level” value was “approximately 6 hours”. The “serum levels compared with healthy control subjects” value in series [3] (subjects with CF taking pancreatic enzymes) was “lower”.
Take `CCCCCCCCCCC[C@@H](C[C@@H]1OC(=O)[C@H]1CCCCCC)OC(=O)[C@H](CC(C)C)NC=O` [Orlistat]: the “expected decrease in index of pancreatic enzymatic activity (ratio of normalized HA to normalized PA) after therapy with Orlistat” value in series [4] (comparison before and after therapy with Orlistat, expected value of the model) was “approximately 70%”. In addition, the “expected estimated pancreatic enzyme activity in the presence of Orlistat, relative to normal (unsuppressed) activity” value in series [4] (fraction of absorbed HA versus fraction of absorbed PA, expected value of the model) is given as “about 70%”. For the same compound, the “serum response of PA prior to versus after receiving Orlistat” value in series [4] (healthy subjects, Orlistat 240 mg TID, PA 2.5 grams and THA 8.0 grams, FIG. 9) is on record as “similar”.
